Results from PubChem BioAssay AID1963835 (Molecular Pharmacology Branch, DTP, NCI, 2024).
Where “and” joins values, the source holds several entries; their conditions need not be identical. Equal values may be shown once.

Test system: 699152-130-R-J1-PDC complex spheroid viability
Experiment: Anticancer human tumor 699152-130-R-J1-PDC patient-derived pancreatic carcinoma cell line growth inhibition [POLQ]
Details: for viability, T/C: stronger effect = lower value
Procedure: Multicellular complex tumor spheroid response to Polymerase (POL) inhibitors (novobiocin, ART-558, RP6685) in combination with a variety of drugs and investigational agents in selected tumor cell lines
The POL inhibitors (novobiocin, ART-558, and RP6685) were evaluated both individually and in combination with standard of care and investigational anticancer small molecules within a complex spheroid model of solid tumors. . Complex spheroids include a stromal component modeled by human endothelial cells (HUVEC) and fibroblasts modeled by human mesenchymal stem cells (MSCs). The concentration ranges selected for each drug and investigational agent were based upon clinically achievable concentrations if the clinical Cmax of the agent was known.
Compounds. The drugs and investigational agents: novobiocin (NSC847541), ART-558 (NSC835418), RP-6685 (NSC848927), peposertib (NSC802822), ceralasertib (NSC780249), elimusertib (NSC800525), camonsertib (NSC841442), AZD-1390 (NSC803789), olaparib (NSC753686), talazoparib (NSC767125), rucaparib (NSC756644), sotorasib (NSC818433), MRTX-1133 (NSC836407), SN-38 (NSC673596), topotecan (NSC609699), epotoside (NSC141540), doxorubicin (NSC123127), gemcitabine (NSC613327), 5-fluorouracil (NSC19893), paclitaxel (NSC125973), vemurafenib (NSC761431), MSA-2 (NSC828583), SN-011 (NSC837082), adavosertib (NSC754352), prexasertib (NSC758257), carboplatin (NSC241240) and oxaliplatin (NSC266046), were obtained from the National Cancer Institute (NCI) Developmental Therapeutics Program Chemical Repository (21). The FDA-approved anticancer drug set is available from the Developmental Therapeutics Program at https://dtp.cancer.gov/organization/dscb/obtaining/. […] The stock solutions were prepared in dimethyl sulfoxide (DMSO, Sigma-Aldrich, St. Louis, MO, cat. D2650), except for the platinum compounds which were prepared in saline (Quality Biological, Gaithersburg, MD, cat. 114-055-101), at 800-fold the tested concentration and stored at -70 degrees C prior to their use. All drugs and investigational agents were tested over a range starting from a high concentration at or near the clinical Cmax and decreasing in half-log increments. If the clinical Cmax for an agent had not been determined, the highest concentration tested was 10 microM, except for SN-38, which was tested at a high concentration of 1 microM.
Cell Culture. All cells were maintained in an incubator at 37 degrees C and 5% CO2 with 95% humidity. The PDC lines were cultured according to standard operating procedures established by the NCI PDMR (https://pdmr.cancer.gov). Table 3 of the manuscript, lists the cell lines along with the number of the three cell types plated to form the mct-spheroids and media for tumor cell growth. After thawing, all PDC lines, except 997537-175-T-J1-PDC and 415267-285-R-J2-PDC, were cultured in Matrigel-coated flasks prepared with a working solution of 1X Ham's F-12 nutrient mix, without supplementation (Thermo Fisher Scientific, cat. 11765054), 100 U/mL penicillin-streptomycin (Thermo Fisher Scientific, cat. 15140122), and 2.5% Matrigel (Corning Inc., Corning, NY, cat. 354248) for the first three passages. The two PDC lines 997537-175-T-J1-PDC and 415267-285-R-J2-PDC were cultured on uncoated flasks. The 857933-349-R-J2-PDC line was cultured in 6C/Colon 1B media containing advanced DMEM/F-12 (Thermo Fisher Scientific, cat. 12634028), 10 mM HEPES (Thermo Fisher Scientific, cat. 15630080), 1X GlutaMAX supplement (Thermo Fisher Scientific, cat. 35050061), 0.1 mg/mL primocin (InvivoGen, San Diego, CA, cat. ant-pm-2), 10% defined fetal bovine serum, heat inactivated (HyClone Laboratories Inc., Logan, UT, cat. SH30070.03HI), 50% L-WRN conditioned media (ATCC, cat. CRL-3276), 1.25 mM N-Acetyl-L-cysteine (Sigma-Aldrich, cat. A9165), 10 mM nicotinamide (Sigma-Aldrich, cat. N0636), 1X B-27 supplement (Thermo Fisher Scientific, cat. 17504044), 1X N-2 supplement (Thermo Fisher Scientific, cat. […]
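Also: spheroids exposed to agents for 7 days before viability reading.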
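For viability, T/C in this document: percent of DMSO vehicle control viability so 100% = vehicle and 0% = no viable signal.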

Q: How did the viability, T/C (compound 0.0316 µM) turn out when `CCCS(=O)(=O)Nc1ccc(F)c(C(=O)c2c[nH]c3ncc(-c4ccc(Cl)cc4)cc23)c1F` was run?
A: 109% and 96.3% and 112%

Q: And the viability, T/C (compound 0.1 µM)?
A: 112% and 102% and 110%

Q: And the viability, T/C (compound 0.316 µM)?
A: 129% and 120% and 116%

Q: And the viability, T/C (compound 1 µM)?
A: 158% and 156% and 128%

Q: And the viability, T/C (compound 3.16 µM)?
A: 187% and 182% and 192%

Q: And the viability, T/C (compound 10 µM)?
A: 34.7% and 43.6% and 56.4%

Q: What about the IC50 (curve of compound) of the same compound?
A: 8440 nM and 9190 nM and > 10000 nM

Q: `COc1cccc2c1C(=O)c1c(O)c3c(c(O)c1C2=O)CC(O)(C(=O)CO)CC3OC1CC(N)C(O)C(C)O1` (stereo not drawn) + COC1C(OC(N)=O)C(O)C(Oc2ccc3c(O)c(NC(=O)c4ccc(O)c(CC=C(C)C)c4)c(=O)oc3c2C)OC1(C)C was tested. Which IC50 (curve of first compound, second compound 0.0316 µM) did it give?
A: 284 nM

Q: And the IC50 (curve of first compound, second compound 0.1 µM)?
A: 235 nM

Q: And the IC50 (curve of first compound, second compound 0.316 µM)?
A: 244 nM

Q: And the IC50 (curve of first compound, second compound 1 µM)?
A: 225 nM

Q: What about the IC50 (curve of first compound, second compound 3.16 µM) of the same compound?
A: 300 nM

Q: And the IC50 (curve of first compound, second compound 10 µM)?
A: 304 nM

Q: What about the viability, T/C (second compound 0.0316 µM, first compound 0.0316 µM) of the same compound?
A: 82.1%

Q: And the viability, T/C (second compound 0.0316 µM, first compound 0.1 µM)?
A: 92.9%

Q: And the viability, T/C (second compound 0.0316 µM, first compound 0.316 µM)?
A: 43.7%

Q: And the viability, T/C (second compound 0.0316 µM, first compound 1 µM)?
A: 24.3%

Q: And the viability, T/C (second compound 0.0316 µM, first compound 3.16 µM)?
A: 3.71%

Q: And the viability, T/C (second compound 0.0316 µM, first compound 10 µM)?
A: 9.4%

Q: And the viability, T/C (second compound 0.1 µM, first compound 0.0316 µM)?
A: 79%

Q: What about the viability, T/C (second compound 0.1 µM, first compound 0.1 µM) of the same compound?
A: 86.8%

Q: And the viability, T/C (second compound 0.1 µM, first compound 0.316 µM)?
A: 38.5%

Q: And the viability, T/C (second compound 0.1 µM, first compound 1 µM)?
A: 27%

Q: What about the viability, T/C (second compound 0.1 µM, first compound 3.16 µM) of the same compound?
A: 3.59%

Q: And the viability, T/C (second compound 0.1 µM, first compound 10 µM)?
A: 13.3%

Q: What about the viability, T/C (second compound 0.316 µM, first compound 0.0316 µM) of the same compound?
A: 66.8%

Q: What about the viability, T/C (second compound 0.316 µM, first compound 0.1 µM) of the same compound?
A: 97.2%

Q: What about the viability, T/C (second compound 0.316 µM, first compound 0.316 µM) of the same compound?
A: 40.7%

Q: What about the viability, T/C (second compound 0.316 µM, first compound 1 µM) of the same compound?
A: 26.1%

Q: What about the viability, T/C (second compound 0.316 µM, first compound 3.16 µM) of the same compound?
A: 2.4%

Q: And the viability, T/C (second compound 0.316 µM, first compound 10 µM)?
A: 10.4%

Q: And the viability, T/C (second compound 1 µM, first compound 0.0316 µM)?
A: 69.7%

Q: And the viability, T/C (second compound 1 µM, first compound 0.1 µM)?
A: 96.7%

Q: What about the viability, T/C (second compound 1 µM, first compound 0.316 µM) of the same compound?
A: 35.9%

Q: And the viability, T/C (second compound 1 µM, first compound 1 µM)?
A: 27.5%

Q: And the viability, T/C (second compound 1 µM, first compound 3.16 µM)?
A: 2.69%

Q: What about the viability, T/C (second compound 1 µM, first compound 10 µM) of the same compound?
A: 12.1%

Q: What about the viability, T/C (second compound 3.16 µM, first compound 0.0316 µM) of the same compound?
A: 73%

Q: What about the viability, T/C (second compound 3.16 µM, first compound 0.1 µM) of the same compound?
A: 88.1%

Q: And the viability, T/C (second compound 3.16 µM, first compound 0.316 µM)?
A: 41.5%

Q: What about the viability, T/C (second compound 3.16 µM, first compound 1 µM) of the same compound?
A: 28%

Q: And the viability, T/C (second compound 3.16 µM, first compound 3.16 µM)?
A: 3.59%

Q: What about the viability, T/C (second compound 3.16 µM, first compound 10 µM) of the same compound?
A: 10.6%

Q: What about the viability, T/C (second compound 10 µM, first compound 0.0316 µM) of the same compound?
A: 76%

Q: And the viability, T/C (second compound 10 µM, first compound 0.1 µM)?
A: 95.2%

Q: And the viability, T/C (second compound 10 µM, first compound 0.316 µM)?
A: 48.8%

Q: What about the viability, T/C (second compound 10 µM, first compound 1 µM) of the same compound?
A: 21.6%

Q: What about the viability, T/C (second compound 10 µM, first compound 3.16 µM) of the same compound?
A: 6.39%

Q: What about the viability, T/C (second compound 10 µM, first compound 10 µM) of the same compound?
A: 13.2%

Q: What does the source list for `COc1ccc([C@@H](O)c2cc(-c3ncnc4cc(N5CCOCC5)ccc34)c(F)cc2Cl)nn1`?
A: viability, T/C (compound 0.0316 µM): 111% and 87.9% and 88.4%; viability, T/C (compound 0.1 µM): 96.7% and 92.9% and 106%; viability, T/C (compound 0.316 µM): 94.5% and 88.7% and 79.7%; viability, T/C (compound 1 µM): 84.6% and 77.3% and 75%; viability, T/C (compound 3.16 µM): 49.6% and 50.5% and 60.4%; viability, T/C (compound 10 µM): 23.9% and 19.9% and 19.4%; IC50 (curve of compound): 3410 nM and 3190 nM and 3960 nM

Q: What does the source list for `CNCc1ccc(-c2[nH]c3cc(F)cc4c3c2CCNC4=O)cc1`?
A: viability, T/C (compound 0.0316 µM): 96.2% and 95.6% and 99%; viability, T/C (compound 0.1 µM): 99.8% and 91.1% and 101%; viability, T/C (compound 0.316 µM): 118% and 90.3% and 99.8%; viability, T/C (compound 1 µM): 106% and 108% and 112%; viability, T/C (compound 3.16 µM): 119% and 117% and 138%; viability, T/C (compound 10 µM): 111% and 109% and 130%; IC50 (curve of compound): > 10000 nM
